Source: ChEMBL document CHEMBL1201862, “PubChem BioAssay data set” (2004)
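Protocol summary: plate cells (96-well), add compound at 5 concentrations, incubate 48 h, interpolate endpoints linearly. At the GI50, growth is halved.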 Activity calls are given as the source filed them. No stated cut-off is given here; in the data, active = GI50 up to about 1.1 µM and inactive = higher.

Key:
Test in all cases: inhibition of tumour cell growth, NCI panel, 48 h
786-0 = test system: 786-0
A498 = test system: A498
A549 = test system: A549
ACHN = test system: ACHN
CAKI-1 = test system: CAKI-1
CCRF-CEM = test system: CCRF-CEM
COLO 205 = test system: COLO 205
DLD-1 = test system: DLD-1
DMS-273 = test system: DMS-273
EKVX = test system: EKVX
HCC 2998 = test system: HCC 2998
HCT-116 = test system: HCT-116
HCT-15 = test system: HCT-15
HL-60 = test system: HL-60
HOP-18 = test system: HOP-18
HOP-62 = test system: HOP-62
HOP-92 = test system: HOP-92
HT-29 = test system: HT-29
IGROV-1 = test system: IGROV-1
K562 = test system: K562
KM-20L2 = test system: KM-20L2
KM12 = test system: KM12
LOX IMVI = test system: LOX IMVI
LXFL 529 = test system: LXFL 529
M14 = test system: M14
M19-MEL = test system: M19-MEL
MOLT-4 = test system: MOLT-4
Malme-3M = test system: Malme-3M
NCI-H226 = test system: NCI-H226
NCI-H23 = test system: NCI-H23
NCI-H460 = test system: NCI-H460
NCI-H522 = test system: NCI-H522
OVCAR-3 = test system: OVCAR-3
OVCAR-4 = test system: OVCAR-4
OVCAR-5 = test system: OVCAR-5
OVCAR-8 = test system: OVCAR-8
RPMI-8226 = test system: RPMI-8226
RXF 393 = test system: RXF 393
RXF 631 = test system: RXF 631
SF-268 = test system: SF-268
SF-295 = test system: SF-295
SF-539 = test system: SF-539
SK-MEL-28 = test system: SK-MEL-28
SK-MEL-2 = test system: SK-MEL-2
SK-MEL-5 = test system: SK-MEL-5
SK-OV-3 = test system: SK-OV-3
SN12C = test system: SN12C
SNB-19 = test system: SNB-19
SNB-75 = test system: SNB-75
SNB-78 = test system: SNB-78
SR = test system: SR
SW-620 = test system: SW-620
TK-10 = test system: TK-10
U-251 = test system: U-251
UACC-257 = test system: UACC-257
UACC-62 = test system: UACC-62
UO-31 = test system: UO-31
XF498 = test system: XF498
DMS-114 = test system: DMS-114

Structure (SMILES): O=C1NN=C(c2ccc([N+](=O)[O-])cc2)C1n1nc(-c2ccccc2)c2ccccc2c1=O (stereo not drawn)
- GI50 (786-0): > 100 µM (inactive)
- GI50 (A498): > 100 µM (inactive)
- GI50 (A549): > 80 µM (inactive)
- GI50 (ACHN): > 100 µM (inactive)
- GI50 (CAKI-1): > 100 µM (inactive)
- GI50 (CCRF-CEM): > 65.5 µM (inactive)
- GI50 (COLO 205): > 60.8 µM (inactive)
- GI50 (DLD-1): > 50.7 µM (inactive)
- GI50 (DMS-273): > 46 µM (inactive)
- GI50 (EKVX): > 100 µM (inactive)
- GI50 (HCC 2998): > 100 µM (inactive)
- GI50 (HCT-116): > 63.8 µM (inactive)
- GI50 (HCT-15): > 45.2 µM
- GI50 (HL-60): > 45.6 µM (inactive)
- GI50 (HOP-18): > 100 µM (inactive)
- GI50 (HOP-62): > 100 µM (inactive)
- GI50 (HOP-92): > 100 µM (inactive)
- GI50 (HT-29): > 100 µM (inactive)
- GI50 (IGROV-1): > 100 µM (inactive)
- GI50 (K562): > 54.5 µM (inactive)
- GI50 (KM-20L2): > 100 µM (inactive)
- GI50 (KM12): > 100 µM (inactive)
- GI50 (LOX IMVI): > 76.9 µM (inactive)
- GI50 (LXFL 529): > 100 µM (inactive)
- GI50 (M14): > 100 µM (inactive)
- GI50 (M19-MEL): > 100 µM (inactive)
- GI50 (MOLT-4): > 94.2 µM (inactive)
- GI50 (Malme-3M): > 100 µM (inactive)
- GI50 (NCI-H226): > 100 µM (inactive)
- GI50 (NCI-H23): > 100 µM (inactive)
- GI50 (NCI-H460): > 92.5 µM (inactive)
- GI50 (NCI-H522): > 100 µM (inactive)
- GI50 (OVCAR-3): > 100 µM (inactive)
- GI50 (OVCAR-4): > 100 µM (inactive)
- GI50 (OVCAR-5): > 100 µM (inactive)
- GI50 (OVCAR-8): > 88.1 µM (inactive)
- GI50 (RPMI-8226): > 48.6 µM (inactive)
- GI50 (RXF 393): > 100 µM (inactive)
- GI50 (RXF 631): > 100 µM (inactive)
- GI50 (SF-268): > 100 µM (inactive)
- GI50 (SF-295): > 100 µM (inactive)
- GI50 (SF-539): > 100 µM (inactive)
- GI50 (SK-MEL-28): > 100 µM (inactive)
- GI50 (SK-MEL-2): > 100 µM (inactive)
- GI50 (SK-MEL-5): > 100 µM (inactive)
- GI50 (SK-OV-3): > 100 µM (inactive)
- GI50 (SN12C): > 100 µM (inactive)
- GI50 (SNB-19): > 100 µM (inactive)
- GI50 (SNB-75): > 95.5 µM (inactive)
- GI50 (SNB-78): > 100 µM (inactive)
- GI50 (SR): > 68.2 µM (inactive)
- GI50 (SW-620): > 34.2 µM (inactive)
- GI50 (TK-10): > 100 µM (inactive)
- GI50 (U-251): > 95.7 µM (inactive)
- GI50 (UACC-257): > 100 µM (inactive)
- GI50 (UACC-62): > 100 µM (inactive)
- GI50 (UO-31): > 100 µM (inactive)
- GI50 (XF498): > 100 µM (inactive)

Structure (SMILES): COCCOCCOCCOc1cccc2c1C(=O)c1cccc(OCCOCCOCCOC)c1C2=O
- GI50 (786-0): > 100 µM (inactive)
- GI50 (A498): > 100 µM (inactive)
- GI50 (A549): > 100 µM (inactive)
- GI50 (ACHN): > 100 µM (inactive)
- GI50 (CAKI-1): > 100 µM (inactive)
- GI50 (CCRF-CEM): 40.1 µM (inactive)
- GI50 (COLO 205): > 100 µM (inactive)
- GI50 (DLD-1): > 100 µM (inactive)
- GI50 (DMS-114): > 100 µM (inactive)
- GI50 (DMS-273): > 100 µM (inactive)
- GI50 (EKVX): > 100 µM (inactive)
- GI50 (HCC 2998): > 100 µM (inactive)
- GI50 (HCT-116): > 100 µM (inactive)
- GI50 (HCT-15): > 100 µM
- GI50 (HL-60): > 100 µM (inactive)
- GI50 (HOP-18): > 100 µM (inactive)
- GI50 (HOP-62): > 100 µM (inactive)
- GI50 (HOP-92): > 100 µM (inactive)
- GI50 (HT-29): > 100 µM (inactive)
- GI50 (IGROV-1): > 100 µM (inactive)
- GI50 (K562): 37.8 µM (inactive)
- GI50 (KM-20L2): > 100 µM (inactive)
- GI50 (LOX IMVI): 70.1 µM (inactive)
- GI50 (LXFL 529): > 100 µM (inactive)
- GI50 (M14): > 100 µM (inactive)
- GI50 (M19-MEL): > 100 µM (inactive)
- GI50 (MOLT-4): 71.8 µM (inactive)
- GI50 (NCI-H23): > 100 µM (inactive)
- GI50 (NCI-H460): 70.6 µM (inactive)
- GI50 (OVCAR-3): 92.5 µM (inactive)
- GI50 (OVCAR-4): > 100 µM (inactive)
- GI50 (OVCAR-8): > 100 µM (inactive)
- GI50 (RPMI-8226): 65.3 µM (inactive)
- GI50 (RXF 393): 92.9 µM (inactive)
- GI50 (RXF 631): > 100 µM (inactive)
- GI50 (SF-295): > 100 µM (inactive)
- GI50 (SF-539): > 100 µM (inactive)
- GI50 (SK-MEL-28): > 100 µM (inactive)
- GI50 (SK-MEL-5): 81.5 µM (inactive)
- GI50 (SK-OV-3): > 100 µM (inactive)
- GI50 (SN12C): > 100 µM (inactive)
- GI50 (SNB-19): > 100 µM (inactive)
- GI50 (SNB-75): > 100 µM (inactive)
- GI50 (SNB-78): > 100 µM (inactive)
- GI50 (SW-620): > 100 µM (inactive)
- GI50 (TK-10): > 100 µM (inactive)
- GI50 (U-251): > 100 µM (inactive)
- GI50 (UACC-257): > 100 µM (inactive)
- GI50 (UACC-62): > 100 µM (inactive)
- GI50 (XF498): > 100 µM (inactive)

Structure (SMILES): CC(C)C.C[N+](C)(C)C.OC(c1ccccc1)(C(F)(F)F)C(F)(F)F.OC(c1ccccc1)(C(F)(F)F)C(F)(F)F.[SiH3-]
- GI50 (786-0): 2.97 µM (inactive)
- GI50 (A549): 4.79 µM (inactive)
- GI50 (ACHN): 8.51 µM (inactive)
- GI50 (CAKI-1): 11.3 µM (inactive)
- GI50 (COLO 205): 6.49 µM (inactive)
- GI50 (DLD-1): 2.77 µM (inactive)
- GI50 (DMS-114): 7.16 µM (inactive)
- GI50 (DMS-273): 10.2 µM (inactive)
- GI50 (EKVX): 3.73 µM (inactive)
- GI50 (HCC 2998): 3.56 µM (inactive)
- GI50 (HCT-116): 3.46 µM (inactive)
- GI50 (HCT-15): 2.13 µM
- GI50 (HOP-18): 4.16 µM (inactive)
- GI50 (HOP-92): < 0.01 µM (active)
- GI50 (HT-29): 3.64 µM (inactive)
- GI50 (K562): 3.89 µM (inactive)
- GI50 (KM-20L2): 2.29 µM (inactive)
- GI50 (KM12): 3.92 µM (inactive)
- GI50 (LXFL 529): 4.19 µM (inactive)
- GI50 (M14): 1.05 µM (active)
- GI50 (M19-MEL): 12.2 µM (inactive)
- GI50 (MOLT-4): 1.73 µM (inactive)
- GI50 (Malme-3M): 11.1 µM (inactive)
- GI50 (NCI-H226): 1.02 µM (active)
- GI50 (NCI-H23): 3.25 µM (inactive)
- GI50 (NCI-H460): 2.04 µM (inactive)
- GI50 (NCI-H522): 6.01 µM (inactive)
- GI50 (OVCAR-3): 0.678 µM (active)
- GI50 (OVCAR-4): 7.59 µM (inactive)
- GI50 (OVCAR-5): 2.28 µM (inactive)
- GI50 (OVCAR-8): 9.23 µM (inactive)
- GI50 (RPMI-8226): 4.43 µM (inactive)
- GI50 (RXF 393): 3.18 µM (inactive)
- GI50 (RXF 631): 2.58 µM (inactive)
- GI50 (SF-295): 3.42 µM (inactive)
- GI50 (SF-539): 2.51 µM (inactive)
- GI50 (SK-MEL-28): 12.4 µM (inactive)
- GI50 (SK-MEL-2): 9.1 µM (inactive)
- GI50 (SK-MEL-5): 10.4 µM (inactive)
- GI50 (SN12C): 5.68 µM (inactive)
- GI50 (SNB-19): 3.26 µM (inactive)
- GI50 (SNB-75): 0.536 µM (active)
- GI50 (SNB-78): 10.3 µM (inactive)
- GI50 (SR): 2.09 µM (inactive)
- GI50 (SW-620): 5 µM (inactive)
- GI50 (TK-10): 12.6 µM (inactive)
- GI50 (U-251): 2.07 µM (inactive)
- GI50 (UACC-257): 14.1 µM (inactive)
- GI50 (UO-31): 5.79 µM (inactive)
- GI50 (XF498): 11.9 µM (inactive)
